# Results as given in ChEMBL document CHEMBL1137058, “Novel 2-oxoimidazolidine-4-carboxylic acid derivatives as hepatitis C virus NS3-4A serine protease inhibitors: synthesis, activity, and X-ray crystal structure of an enzyme inhibitor complex” (Bioorg Med Chem Lett, 2004).
# Biological target: NS3 (Hepatitis C virus, UniProt A3EZJ3)
# Experiment: Inhibition of Hepatitis C virus NS3 serine protease
# Design: species or system Hepacivirus hominis
# Chain of NS3 (A3EZJ3 whole entry): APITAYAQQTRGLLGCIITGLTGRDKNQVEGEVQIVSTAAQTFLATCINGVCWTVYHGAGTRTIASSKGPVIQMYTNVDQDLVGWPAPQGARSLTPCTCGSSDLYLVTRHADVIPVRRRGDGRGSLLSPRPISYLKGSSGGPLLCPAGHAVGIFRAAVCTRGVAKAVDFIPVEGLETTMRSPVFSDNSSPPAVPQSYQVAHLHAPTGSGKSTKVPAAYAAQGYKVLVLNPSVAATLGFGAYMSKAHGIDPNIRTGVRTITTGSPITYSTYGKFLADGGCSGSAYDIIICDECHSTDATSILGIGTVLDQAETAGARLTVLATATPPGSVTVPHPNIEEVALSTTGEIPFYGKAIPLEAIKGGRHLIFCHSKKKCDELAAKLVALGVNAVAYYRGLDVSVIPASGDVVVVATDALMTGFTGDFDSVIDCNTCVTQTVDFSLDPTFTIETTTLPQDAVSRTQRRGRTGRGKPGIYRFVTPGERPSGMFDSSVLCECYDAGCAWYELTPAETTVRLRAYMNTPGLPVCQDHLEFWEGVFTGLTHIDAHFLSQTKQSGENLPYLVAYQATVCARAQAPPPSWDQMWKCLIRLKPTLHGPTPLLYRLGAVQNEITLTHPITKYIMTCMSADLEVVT
row,Structure (SMILES),Ki
1,C=CCNC(=O)C(=O)C(CCC)NC(=O)[C@@H]1CN(CC(=O)OCC)C(=O)N1C(=O)[C@@H](NC(=O)OC(C)(C)C)C(C)C (stereo partly specified),150 µM
2,C=CCOC(=O)CNC(=O)C(=O)[C@H](CCC)NC(=O)[C@@H]1CN(Cc2ccccc2)C(=O)N1C(=O)[C@@H](NC(=O)[C@@H](NC(=O)[C@H](CCC(=O)O)NC(=O)[C@H](CCC(=O)O)NC(C)=O)C(C)C)C(C)C,1 µM
3,C=CCNC(=O)C(=O)[C@H](CCC)NC(=O)[C@@H]1CN(Cc2ccccc2)C(=O)N1C(=O)[C@@H](NC(=O)[C@@H](NC(=O)[C@H](CCC(=O)OC(C)(C)C)NC(=O)[C@H](CCC(=O)OC(C)(C)C)NC(C)=O)C(C)C)C(C)C,61 µM
4,C=CCOC(=O)CNC(=O)C(=O)[C@H](CCC)NC(=O)[C@@H]1CN(Cc2ccc(Cl)c(Cl)c2)C(=O)N1C(=O)[C@@H](NC(=O)[C@@H](NC(=O)[C@H](CCC(=O)O)NC(=O)[C@H](CCC(=O)O)NC(C)=O)C(C)C)C(C)C,0.31 µM
5,C=CCNC(=O)C(=O)[C@H](CCC)NC(=O)[C@@H]1CNC(=O)N1C(=O)[C@@H](NC(=O)[C@@H](NC(=O)[C@H](CCC(=O)O)NC(=O)[C@H](CCC(=O)O)NC(C)=O)C(C)C)C(C)C,46 µM
6,C=CCOC(=O)CNC(=O)C(=O)C(CCC)NC(=O)[C@@H]1CN(Cc2ccccc2)C(=O)N1C(=O)[C@@H](NC(=O)[C@@H](NC(=O)[C@H](CCC(=O)OC(C)(C)C)NC(=O)[C@H](CCC(=O)OC(C)(C)C)NC(C)=O)C(C)C)C(C)C (stereo partly specified),> 100 µM
7,C=CCOC(=O)CNC(=O)C(=O)C(CCC)NC(=O)[C@@H]1CN(Cc2ccc(Cl)c(Cl)c2)C(=O)N1C(=O)[C@@H](NC(=O)[C@@H](NC(=O)[C@H](CCC(=O)OC(C)(C)C)NC(=O)[C@H](CCC(=O)OC(C)(C)C)NC(C)=O)C(C)C)C(C)C (stereo partly specified),> 100 µM
8,C=CCNC(=O)C(=O)[C@H](CCC)NC(=O)[C@@H]1CN(Cc2ccccc2)C(=O)N1C(=O)[C@@H](NC(=O)[C@@H](NC(=O)[C@H](CCC(=O)O)NC(=O)[C@H](CCC(=O)O)NC(C)=O)C(C)C)C(C)C,1 µM
9,C=CCNC(=O)C(=O)[C@H](CCC)NC(=O)[C@@H]1CNC(=O)N1C(=O)[C@@H](NC(=O)[C@@H](NC(=O)[C@H](CCC(=O)OC(C)(C)C)NC(=O)[C@H](CCC(=O)OC(C)(C)C)NC(C)=O)C(C)C)C(C)C,69 µM
10,C=CCNC(=O)C(=O)[C@H](CCC)NC(=O)[C@@H]1CN(CC(=O)OCC)C(=O)N1C(=O)[C@@H](NC(=O)[C@@H](NC(=O)[C@H](CCC(=O)O)NC(=O)[C@H](CCC(=O)O)NC(C)=O)C(C)C)C(C)C,4 µM
11,C=CCNC(=O)C(=O)[C@H](CCC)NC(=O)[C@@H]1CN(CC(=O)OCC)C(=O)N1C(=O)[C@@H](NC(=O)[C@@H](NC(=O)[C@H](CCC(=O)OC(C)(C)C)NC(=O)[C@H](CCC(=O)OC(C)(C)C)NC(C)=O)C(C)C)C(C)C,30 µM
